Experimental data: US20150238477A1, “Method of Treating Lung Adenocarcinoma” (EXELIXIS, INC., priority 2012, published 2015)

Experiments:
[1] = target: T1, KIF5B-RET fusion-positive NSCLC (Homo sapiens, UniProt P07949); assay: case study, phase 1 monotherapy in a patient with KIF5B-RET fusion-positive NSCLC; format: in vivo
T1 construct: expression of variant 1 transcripts (KIF5B exon 15; RET exon 12); endogenous in cells; host or cells: lung adenocarcinoma cells of the patient (pleural effusion cells); the other entry of the earlier key: KIF5B (P33176, Kinesin-1 heavy chain)
T1 sequence (P07949 with tags, fused parts or gaps): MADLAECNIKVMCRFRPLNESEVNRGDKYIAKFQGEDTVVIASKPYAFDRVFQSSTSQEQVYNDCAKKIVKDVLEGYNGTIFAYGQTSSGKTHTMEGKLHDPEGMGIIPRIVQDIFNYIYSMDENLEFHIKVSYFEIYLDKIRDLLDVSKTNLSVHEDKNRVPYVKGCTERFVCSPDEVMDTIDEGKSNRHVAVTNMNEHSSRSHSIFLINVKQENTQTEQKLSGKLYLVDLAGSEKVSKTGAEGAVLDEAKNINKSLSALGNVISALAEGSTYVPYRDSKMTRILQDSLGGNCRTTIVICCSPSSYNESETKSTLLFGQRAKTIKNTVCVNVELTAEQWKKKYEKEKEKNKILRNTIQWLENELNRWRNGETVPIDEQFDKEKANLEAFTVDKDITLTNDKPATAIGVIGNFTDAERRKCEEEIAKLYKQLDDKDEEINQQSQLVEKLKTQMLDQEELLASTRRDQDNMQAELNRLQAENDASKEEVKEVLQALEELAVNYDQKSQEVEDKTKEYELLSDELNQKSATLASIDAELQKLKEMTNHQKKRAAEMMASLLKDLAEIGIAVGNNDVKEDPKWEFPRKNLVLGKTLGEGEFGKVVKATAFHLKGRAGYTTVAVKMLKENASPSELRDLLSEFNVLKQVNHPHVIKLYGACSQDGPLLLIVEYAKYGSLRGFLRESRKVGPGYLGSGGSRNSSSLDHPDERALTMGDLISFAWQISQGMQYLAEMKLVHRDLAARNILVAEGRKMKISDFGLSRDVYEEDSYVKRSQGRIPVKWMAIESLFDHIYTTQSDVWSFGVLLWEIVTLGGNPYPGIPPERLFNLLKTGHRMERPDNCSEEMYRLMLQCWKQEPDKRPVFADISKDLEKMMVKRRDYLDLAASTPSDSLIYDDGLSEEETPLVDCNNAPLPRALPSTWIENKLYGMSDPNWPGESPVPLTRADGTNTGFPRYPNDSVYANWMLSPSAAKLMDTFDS
Text: A person who was a former smoker presented in April 2009 for evaluation of a right pleural effusion. […] There was also no tumor in either the neck or thyroid on the CT scans. The patient was diagnosed as having stage IIIB (cT4N0M0, 6th edition of the International System for Staging Lung cancer) adenocarcinoma of the lung. […] Re-growth of primary tumor was, however, reported 8 months after the end of therapy. The patient subsequently received 13 cycles of docetaxel as second-line treatment and 2 cycles of an investigational drug (anti-HER2 [human epidermal growth factor receptor type2] antibody) as third-line treatment. […] Yamamoto, N., Nokihara, H., Wakui, H., Yamada, Y., Frye, J., DeCillis, A., and Tamura, T. A phase 1 multiple ascending dose study of cabozantinib (XL184) monotherapy in Japanese patients with advanced solid tumors. Molecular Cancer Therapeutics. 2011 10 suppl 1 (abstr C26) and Nokihara, H., Yamamoto, N., Nakamichi, S., Wakui, H., Yamada, Y., Frye, J., Decillis, A., and Tamura, T. in Annals of Oncology, Vol. 23, Supplement 9, published September 17, 2012.
In February 2012, they terminated cabozantinib monotherapy due to progressive disease.

medullary thyroid cancer = settings: 25 of 37 patients with MTC; cited from earlier work
TT xenograft tumors = assay: TT xenograft tumor growth; format: in vivo, nu/nu mice; settings: oral once daily, 21 days
Experimental: (§1) Nu/nu mice bearing TT tumors were orally administered once daily water vehicle (□) or cabozantinib at 3 mg/kg (∇), 10 mg/kg (◯), 30 mg/kg (♦), or 60 mg/kg (⋄) for 21 days. Tumor weights were determined twice weekly. Data points represent the mean tumor weight (in milligrams) and SE for each treatment group. Circulating calcitonin levels were determined in serum preparations from whole blood collected after the final indicated doses (* indicates a significant, P <0.05, reduction in circulating calcitonin when compared to serum samples from vehicle-treated control animals).

AKT and ERK = assay: phosphorylation of AKT and ERK in TT xenograft tumors in vivo; design: species or system mice; settings: single 100-mg/kg oral dose
Experimental: Levels of phosphorylated and total RET and were determined in pooled lysates by Western immunoblot analysis. In a separate study, mice bearing TT tumors were administered a single oral dose of cabozantinib (100 mg/kg) or water vehicle, and levels of phosphorylated and total RET, AKT, and ERK in tumor lysates were determined at the indicated time points post dose. Densitometric quantitation of the duration of inhibition of phosphorylation of RET versus plasma concentrations of cabozantinib. Representative Western blot images are shown. […] This effect was reversible as RET phosphorylation returned to basal levels by 48 hours after treatment as depicted in FIG. 1C.

[2] = plasma concentrations in TT xenograft study; format: in vivo, nu/nu mice; settings: 30- and 60-mg/kg doses, oral once daily
RET = target: T2, RET (Homo sapiens, UniProt P07949, C634W); assay: phosphorylation of RET in TT xenograft tumors in vivo (Western immunoblot); design: species or system mice
T2 construct: endogenous in cells; host or cells: TT cells (human medullary thyroid carcinoma), in culture or as xenograft tumours in nu/nu mice
T2 sequence (P07949 29-1114 C634W): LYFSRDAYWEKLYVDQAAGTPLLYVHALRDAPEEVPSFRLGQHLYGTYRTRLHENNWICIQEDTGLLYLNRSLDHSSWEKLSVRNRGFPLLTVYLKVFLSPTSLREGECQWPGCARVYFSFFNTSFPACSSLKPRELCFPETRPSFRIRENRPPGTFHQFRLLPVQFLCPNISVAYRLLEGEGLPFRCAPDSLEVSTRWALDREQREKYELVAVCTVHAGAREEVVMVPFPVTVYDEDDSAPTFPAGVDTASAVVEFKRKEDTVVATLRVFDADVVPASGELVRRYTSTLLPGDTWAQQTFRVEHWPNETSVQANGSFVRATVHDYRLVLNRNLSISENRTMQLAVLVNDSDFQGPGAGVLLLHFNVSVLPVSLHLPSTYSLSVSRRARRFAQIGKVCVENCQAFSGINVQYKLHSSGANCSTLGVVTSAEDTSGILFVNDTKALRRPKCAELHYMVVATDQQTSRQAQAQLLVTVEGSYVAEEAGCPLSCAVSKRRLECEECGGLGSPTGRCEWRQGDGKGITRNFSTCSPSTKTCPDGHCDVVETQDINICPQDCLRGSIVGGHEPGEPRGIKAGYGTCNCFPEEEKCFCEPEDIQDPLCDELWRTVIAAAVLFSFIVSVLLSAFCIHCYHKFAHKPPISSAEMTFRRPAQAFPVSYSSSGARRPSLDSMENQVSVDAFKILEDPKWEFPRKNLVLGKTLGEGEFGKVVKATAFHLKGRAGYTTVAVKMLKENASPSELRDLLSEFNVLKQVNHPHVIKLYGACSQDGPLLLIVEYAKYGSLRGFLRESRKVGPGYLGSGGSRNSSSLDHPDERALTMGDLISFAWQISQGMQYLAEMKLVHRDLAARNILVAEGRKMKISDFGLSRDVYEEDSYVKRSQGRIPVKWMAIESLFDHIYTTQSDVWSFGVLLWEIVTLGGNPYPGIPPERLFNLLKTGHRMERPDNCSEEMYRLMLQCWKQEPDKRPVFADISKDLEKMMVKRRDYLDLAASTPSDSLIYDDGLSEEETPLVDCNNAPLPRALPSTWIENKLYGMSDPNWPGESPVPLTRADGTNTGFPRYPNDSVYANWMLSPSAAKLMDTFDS

[3] = mouse, in vivo
Experimental: as §1
. Given that TT xenograft tumors are known to secrete high amounts of human calcitonin that correlates with tumor size, serum concentrations of circulating calcitonin were determined at the end of the dosing period. […]; P <0.005) at both the 30- and 60-mg/kg doses when compared to vehicle control animals, as depicted in FIG. 2B. Moreover, this reduction in circulating plasma calcitonin correlated with TT tumor growth inhibition described above. […]

KIF5B-RET = target: T3, KIF5B-RET (Homo sapiens, UniProt P07949); settings: in vitro studies; cited from earlier work
T3 sequence (P07949 713-1063 limits assumed): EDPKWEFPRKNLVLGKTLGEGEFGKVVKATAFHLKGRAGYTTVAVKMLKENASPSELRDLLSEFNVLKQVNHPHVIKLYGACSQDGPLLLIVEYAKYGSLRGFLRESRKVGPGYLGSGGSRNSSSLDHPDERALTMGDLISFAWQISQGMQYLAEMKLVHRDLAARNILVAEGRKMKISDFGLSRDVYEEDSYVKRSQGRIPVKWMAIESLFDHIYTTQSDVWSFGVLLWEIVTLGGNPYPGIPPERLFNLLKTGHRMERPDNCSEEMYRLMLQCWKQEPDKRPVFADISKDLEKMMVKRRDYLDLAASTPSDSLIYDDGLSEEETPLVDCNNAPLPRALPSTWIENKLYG

## COc1cc2nccc(Oc3ccc(NC(=O)C4(C(=O)Nc5ccc(F)cc5)CC4)cc3)c2cc1OC [Compound 1, N-(4-{[6,7-bis(methyloxy)quinolin-4-yl]oxy}phenyl)-N′-(4-fluorophenyl)cyclopropane-1,1-dicarboxamide]
[1]; during 10 cycles (months) of therapy, without clinical symptoms of pancreatitis
  adverse event leading to drug interruptions: grade 3 serum lipase elevations
[1]; starting dose 40 mg once a day, at 9 weeks, confirmed at 17 weeks
  response of primary lung tumor on chest CT: partial response
[1]; starting dose 40 mg once a day, chest CT at 9 weeks
  tumor reduction: 40.1%
Medullary thyroid cancer
  patients with confirmed partial response or stable disease for 6 months or longer: 68%
TT xenograft tumors; 10- and 30-mg/kg doses
  TT xenograft tumor growth: dose-dependent inhibition
TT xenograft tumors; 30- and 60-mg/kg doses
  TT xenograft tumor growth outcome: stable disease
AKT and ERK
  time of reduced phosphorylation levels of AKT and ERK post dose: 4 to 24 h
[2]
  peak cyclical plasma concentrations: 3,000 to 45,000 nmol/L
RET; single 100-mg/kg oral dose
  time of inhibition of phosphorylation of RET post dose: 4 to 24 h
RET; single 100-mg/kg oral dose, after treatment
  time at which RET phosphorylation returned to basal levels: ≤ 48 h
RET; single ascending oral dose, tumors collected 4 h post dose
  inhibition of phosphorylation of RET in tumors: dose-dependent inhibition of phosphorylation of RET
[3]
  tolerability (stable body weights): well tolerated

## CNC(=O)c1cc(Oc2ccc(NC(=O)Nc3ccc(Cl)c(C(F)(F)F)c3)cc2)ccn1 [sorafenib]
KIF5B-RET
  growth and signaling properties mediated by KIF5B-RET after treatment: diminished
